The values below come from patent publication US9944647B2 (Incyte Corporation, priority 2015, dated 2018).

Bounds are passed on as bounds.

In this test the target is LSD-1 enzyme (Homo sapiens (Human), UniProt O60341). Briefly: LANCE LSD1/KDM1A demethylase assay (LSD1 histone demethylase biochemical assay). The settings on record: 1 nM LSD-1 enzyme, 1 hour preincubation at 25° C., Biotin-labeled Histone H3 peptide substrate. The method, then:
Example A: LSD1 Histone Demethylase Biochemical Assay
LANCE LSD1/KDM1A demethylase assay—10 μL of 1 nM LSD-1 enzyme (ENZO BML-SE544-0050) in the assay buffer (50 mM Tris, pH 7.5, 0.01% Tween-20, 25 mM NaCl, 5 mM DTT) were preincubated for 1 hour at 25° C. with 0.8 μL compound/DMSO dotted in black 384 well polystyrene plates. […] Reactions were stopped by addition of 10 μL 1×LANCE Detection Buffer (PerkinElmer CR97-100) supplemented with 1.5 nM Eu-anti-unmodified H3K4 Antibody (PerkinElmer TRF0404), and 225 nM LANCE Ultra Streptavidin (PerkinElmer TRF102) along with 0.9 mM Tranylcypromine-HCl (Millipore 616431). After stopping the reactions plates were incubated for 30 minutes and read on a PHERAstar FS plate reader (BMG Labtech).
What is called IC50 is the midpoint of a concentration-inhibition curve. Low readings indicate greater potency in that assay, high ones weaker potency in that assay. In turn, `CN1CCC[C@@H](COc2nc(-c3ccc(C#N)cc3)c(-c3cnc4c(cnn4C)c3)c3nccn23)C1` [Example 28, 4-[5-{[(3R)-1-methylpiperidin-3-yl]methoxy}-8-(1-methyl-1H-pyrazolo[3,4-b]pyridin-5-yl)imidazo [1,2-c]pyrimidin-7-yl]benzonitrile] returned an IC50 of at most 50 nM.
For `CCN1CCC[C@@H](COc2nc(-c3ccc(C#N)cc3)c(-c3cnc4c(cnn4C)c3)c3nccn23)C1` [Example 29, 4-[5-{[(3R)-1-ethylpiperidin-3-yl]methoxy}-8-(1-methyl-1H-pyrazolo[3,4-b]pyridin-5-yl)imidazo[1,2-c]pyrimidin-7-yl]benzonitrile] the value was at most 50 nM; for `Cc1cc(-c2c(-c3ccc(C#N)cc3)nc(OC[C@@H]3CCCN(C)C3)n3ccnc23)cc(F)c1CO` [Example 30, 4-(8-[3-fluoro-4-(hydroxymethyl)-5-methylphenyl]-5-{[(3R)-1-methylpiperidin-3-yl]methoxy}imidazo[1,2-c]pyrimidin-7-yl)benzonitrile], at most 50 nM; for `CN1CCC[C@@H](COc2nc(-c3ccc(C#N)cc3)c(-c3ccc(CO)c(F)c3)c3nccn23)C1` [Example 31, 4-(8-[3-fluoro-4-(hydroxymethyl)phenyl]-5-{[(3R)-1-methylpiperidin-3-yl]methoxy}imidazo[1,2-c]pyrimidin-7-yl)benzonitrile], at most 50 nM.
`CN1CCC[C@@H](COc2nc(-c3ccc(C#N)cc3)c(-c3cc(F)c(CO)c(F)c3)c3nccn23)C1` [Example 32, 4-(8-[3,5-difluoro-4-(hydroxymethyl)phenyl]-5-{[(3R)-1-methylpiperidin-3-yl]methoxy}imidazo[1,2-c]pyrimidin-7-yl)benzonitrile] yielded an IC50 of at most 50 nM.
In turn, `Cn1ncc2cc(-c3c(-c4ccc(C#N)cc4)nc(OC[C@@H]4CCCN(CCC#N)C4)n4ccnc34)cnc21` [Example 33, 4-[5-{[(3R)-1-(2-cyanoethyl)piperidin-3-yl]methoxy}-8-(1-methyl-1H-pyrazolo[3,4-b]pyridin-5-yl)imidazo[1,2-c]pyrimidin-7-yl]benzonitrile] yielded an IC50 of at most 50 nM.
On to `Cn1ncc2cc(-c3c(-c4ccc(C#N)cc4)nc(OC[C@@H]4CCCN(CCO)C4)n4ccnc34)cnc21` [Example 34, 4-[5-{[(3R)-1-(2-hydroxyethyl)piperidin-3-yl]methoxy}-8-(1-methyl-1H-pyrazolo[3,4-b]pyridin-5-yl)imidazo[1,2-c]pyrimidin-7-yl]benzonitrile], for which the 50% inhibitory concentration (IC50) is at most 50 nM.
Under `Cc1cc(-c2c(-c3ccc(C#N)cc3)nc(OC[C@@H]3CCCN(C)C3)n3ccnc23)ccc1CO` [Example 35, 4-(8-[4-(hydroxymethyl)-3-methylphenyl]-5-{[(3R)-1-methylpiperidin-3-yl]methoxy}imidazo[1,2-c]pyrimidin-7-yl)benzonitrile] stands at most 50 nM; under `CN1CCC[C@@H](COc2nc(-c3ccc(C#N)cc3)c(-c3ccc(CO)cc3)c3nccn23)C1` [Example 36, 4-(8-[4-(hydroxymethyl)phenyl]-5-{[(3R)-1-methylpiperidin-3-yl]methoxy}imidazo[1,2-c]pyrimidin-7-yl)benzonitrile], at most 50 nM; under `CN(C)C1CCN(c2nc(-c3ccc(C#N)cc3)c(-c3cnc4c(cnn4C)c3)c3nccn23)CC1` [Example 37, 4-[5-[4-(dimethylamino)piperidin-1-yl]-8-(1-methyl-1H-pyrazolo[3,4-b]pyridin-5-yl)imidazo[1,2-c]pyrimidin-7-yl]benzonitrile], at most 50 nM.
In turn, `CN(C)[C@@H]1CCN(c2nc(-c3ccc(C#N)cc3)c(-c3cnc4c(cnn4C)c3)c3nccn23)C1` [Example 38, 4-[5-[(3R)-3-(dimethylamino)pyrrolidin-1-yl]-8-(1-methyl-1H-pyrazolo[3,4-b]pyridin-5-yl)imidazo[1,2-c]pyrimidin-7-yl]benzonitrile] had an IC50 of at most 50 nM.
`CN1CCC2(CCN(c3nc(-c4ccc(C#N)cc4)c(-c4cnc5c(cnn5C)c4)c4nccn34)C2)C1` (stereo not drawn) [Example 39, 4-[5-(7-methyl-2,7-diazaspiro[4.4]non-2-yl)-8-(1-methyl-1H-pyrazolo[3,4-b]pyridin-5-yl)imidazo[1,2-c]pyrimidin-7-yl]benzonitrile] came in with an IC50 of at most 50 nM.
For `COC(=O)N(C)Cc1ccc(-c2c(-c3ccc(C#N)cc3)nc(OC[C@@H]3CCCN(C)C3)n3ccnc23)cc1F` [Example 40, methyl[4-(7-(4-cyanophenyl)-5-{[(3R)-1-methylpiperidin-3-yl]methoxy}imidazo[1,2-c]pyrimidin-8-yl)-2-fluorobenzyl]methylcarbamate] the value was at most 50 nM; for `COCCN1CCC[C@@H](COc2nc(-c3ccc(C#N)cc3)c(-c3cnc4c(cnn4C)c3)c3nccn23)C1` [Example 41, 4-[5-{[(3R)-1-(2-methoxyethyl)piperidin-3-yl]methoxy}-8-(1-methyl-1H-pyrazolo[3,4-b]pyridin-5-yl)imidazo[1,2-c]pyrimidin-7-yl]benzonitrile], at most 50 nM; for `CN1CCC[C@@H](COc2nc(-c3ccc(C#N)cc3)c(-c3ccc4c(c3)c(N)nn4C)c3nccn23)C1` [Example 42, 4-(8-(3-amino-1-methyl-1H-indazol-5-yl)-5-{[(3R)-1-methylpiperidin-3-yl]methoxy}imidazo[1,2-c]pyrimidin-7-yl)benzonitrile], at most 50 nM.
For `CN1CCC[C@@H](COc2nc(-c3ccc(C#N)cc3)c(-c3ccc4c(c3)OC(=O)N(C)C4)c3nccn23)C1` [Example 43, 4-(8-(3-methyl-2-oxo-3,4-dihydro-2H-1,3-benzoxazin-7-yl)-5-{[(3R)-1-methylpiperidin-3-yl]methoxy}imidazo[1,2-c]pyrimidin-7-yl)benzonitrile], the IC50 is at most 50 nM.
Compound `CN1CCC[C@@H](COc2nc(-c3ccc(C#N)cc3)c(-c3ccc4c(c3)n(C)c(=O)n4C)c3nccn23)C1` [Example 44, 4-(8-(1,3-dimethyl-2-oxo-2,3-dihydro-1H-benzimidazol-5-yl)-5-{[(3R)-1-methylpiperidin-3-yl]methoxy}imidazo[1,2-c]pyrimidin-7-yl)benzonitrile] gave a half-inhibitory concentration (IC50) of 50 to 500 nM.
Take `CN1CCC[C@@H](COc2nc(-c3ccc(C#N)cc3)c(-c3cc4oc(=O)n(C)c4cc3F)c3nccn23)C1` [Example 45, 4-(8-(5-fluoro-3-methyl-2-oxo-2,3-dihydro-1,3-benzoxazol-6-yl)-5-{[(3R)-1-methylpiperidin-3-yl]methoxy}imidazo[1,2-c]pyrimidin-7-yl)benzonitrile]: the IC50 is at most 50 nM.
Take `CN(C)C1CCN(c2nc(-c3ccc(C#N)cc3)c(-c3ccc4c(cnn4C)c3)c3nccn23)CC1` [Example 46, 4-[5-[4-(dimethylamino)piperidin-1-yl]-8-(1-methyl-1H-indazol-5-yl)imidazo[1,2-c]pyrimidin-7-yl]benzonitrile]: the half-inhibitory concentration (IC50) was at most 50 nM.
The compound `CN(C)C1CCN(c2nc(-c3ccc(C#N)cc3)c(-c3ccc4c(c3)oc(=O)n4C)c3nccn23)CC1` [Example 47, 4-[5-[4-(dimethylamino)piperidin-1-yl]-8-(3-methyl-2-oxo-2,3-dihydro-1,3-benzoxazol-6-yl)imidazo[1,2-c]pyrimidin-7-yl]benzonitrile] registered a half-inhibitory concentration (IC50) of at most 50 nM.
For `COc1ccc(-c2c(-c3ccc(C#N)cc3)nc(N3CCC(N(C)C)CC3)n3ccnc23)cn1` [Example 48, 4-[5-[4-(dimethylamino)piperidin-1-yl]-8-(6-methoxypyridin-3-yl)imidazo[1,2-c]pyrimidin-7-yl]benzonitrile], the IC50 is 50 to 500 nM.
As to `COc1ncc(-c2c(-c3ccc(C#N)cc3)nc(N3CCC(N(C)C)CC3)n3ccnc23)cc1F` [Example 49, 4-[5-[4-(dimethylamino)piperidin-1-yl]-8-(5-fluoro-6-methoxypyridin-3-yl)imidazo[1,2-c]pyrimidin-7-yl]benzonitrile], the IC50 was at most 50 nM.
Under `CN(C)C1CCN(c2nc(-c3ccc(C#N)cc3)c(-c3ccc(N4CCCC4=O)nc3)c3nccn23)CC1` [Example 50, 4-{5-[4-(dimethylamino)piperidin-1-yl]-8-[6-(2-oxopyrrolidin-1-yl)pyridin-3-yl]imidazo[1,2-c]pyrimidin-7-yl}benzonitrile] stands 50 to 500 nM.
On to `CN1C(=O)COc2cc(-c3c(-c4ccc(C#N)cc4)nc(N4CCC(N(C)C)CC4)n4ccnc34)ccc21` [Example 51, 4-[5-[4-(dimethylamino)piperidin-1-yl]-8-(4-methyl-3-oxo-3,4-dihydro-2H-1,4-benzoxazin-7-yl)imidazo[1,2-c]pyrimidin-7-yl]benzonitrile], for which the half-inhibitory concentration (IC50) was at most 50 nM.
Regarding `CN(C)C1CCN(c2nc(-c3ccc(C#N)cc3)c(-c3ccc4c(c3)nc(C(F)F)n4C)c3nccn23)CC1` [Example 52, 4-{8-[2-(difluoromethyl)-1-methyl-1H-benzimidazol-5-yl]-5-[4-(dimethylamino)piperidin-1-yl]imidazo[1,2-c]pyrimidin-7-yl}benzonitrile], the 50% inhibitory concentration (IC50) is at most 50 nM.
With `COc1ncc(-c2c(-c3ccc(C#N)cc3)nc(N3CCC(N(C)C)CC3)n3ccnc23)cc1C` [Example 53, 4-[5-[4-(dimethylamino)piperidin-1-yl]-8-(6-methoxy-5-methylpyridin-3-yl)imidazo[1,2-c]pyrimidin-7-yl]benzonitrile], the 50% inhibitory concentration (IC50) is at most 50 nM.
Compound `CN(C)C1CCN(c2nc(-c3ccc(C#N)cc3)c(-c3cc4oc(=O)n(C)c4cc3F)c3nccn23)CC1` [Example 54, 4-[5-[4-(dimethylamino)piperidin-1-yl]-8-(5-fluoro-3-methyl-2-oxo-2,3-dihydro-1,3-benzoxazol-6-yl)imidazo[1,2-c]pyrimidin-7-yl]benzonitrile] had an IC50 of at most 50 nM.
